The values below come from a melting point compilation (Tetko et al.).

`CC(=O)c1ccc(-n2ccnc2)cc1` gave a melting point of 116 °C.

The compound `Cn1c(=O)c2c(ncn2CN2CCOCC2)n(C)c1=O` registered a melting point of 177 °C.

Take `CCC1(O)CCC2(C)C(CCC3C4CCC(=O)C4(C)CCC32)C1` (stereo unspecified): the melting point was 113 to 116 °C.

On to `CCCCCCCCCCCCCCC(Br)C(=O)O` (stereo unspecified), for which the melting point is 52 to 56 °C.

Regarding `O=C(c1ccc(Cl)cc1)c1noc(-c2ccc(Cl)cc2)c1S(=O)(=O)c1ccccc1`, the melting point was found to be 147 °C.

With `COc1ccccc1-c1ccc(C=C2C(=O)NC(=O)NC2=O)o1`, the melting point came to 220 °C.

Consider `O=C(Cl)OCc1ccc([N+](=O)[O-])cc1`, for which the melting point amounted to 33 °C.

For `O=C1Cc2cc(Br)ccc2N1`, the melting point lay in the range of 219 to 221 °C.

In turn, `Cc1cc(N)n[nH]1` registered a melting point of 41 to 43 °C.

For the compound `CC1=NNC(=O)C1=NNc1ccccc1C(=O)O`, the melting point was 239 °C.

In turn, `COc1c(Br)c(C)c(Br)c(Br)c1OC` registered a melting point of 90 °C.

`CC12CCC3C4CCC(=O)C=C4CCC3C1CCC2OC(=O)CCc1ccccc1` (stereo unspecified) registered a melting point of 118 °C.

As for `CC(C)[C@]12C/C(=N\NC(N)=O)[C@H](C)[C@H]1C2`, the melting point stood at 174 °C.

Consider `Cc1ccccc1-n1ncc(C=O)c1C`, for which the melting point was in the range of 99 to 100 °C.

Regarding `COc1ccc(C(=O)c2noc(-c3ccc(C)cc3)c2S(=O)(=O)c2ccccc2)cc1`, the melting point was 156 °C.

The compound `COc1cc(CNC(=O)c2[nH]c3ccccc3c2CCO)cc(OC)c1` came in with a melting point of 185 to 187 °C.

Turning to `O=C(O)c1ccccc1Cn1cncn1`, the melting point lay in the range of 206 to 207 °C.

Turning to `O=C1N[C@@H](c2ccccc2)CO1`, the melting point was 130 to 133 °C.

In the case of `N#CCC(=O)c1ccc(OC(F)(F)F)cc1`, the melting point lay in the range of 82 to 84 °C.

In turn, `Cc1c(Cl)cccc1S(=O)(=O)Cl` had a melting point of 71 to 73 °C.

`CCC(C)CCCCO` (stereo unspecified) gave a melting point of -104 °C.

`C[C@H](O)[C@@H](N)C(=O)O` gave a melting point of 274 °C.

The compound `COc1cccc2cc(C(=O)O)c(=O)oc12` had a melting point of 214 to 216 °C.

Take `CC(COc1ccc(Oc2ccccc2)cc1)Oc1ccccn1` (stereo unspecified): the melting point came to 49 °C.

`O=C(O)C1CCC(c2ccccc2)CC1C(=O)O` (stereo unspecified) had a melting point of 185 to 190 °C.

`Cn1ccc(-c2cccc(C(=O)Oc3c(F)c(F)c(F)c(F)c3F)c2)n1` showed a melting point of 126 to 127 °C.

The compound `COc1cccc(C=Nn2c(C)cc(C)c(C#N)c2=O)c1O` showed a melting point of 209 to 212 °C.

`O=C1CC(=O)NC(=O)N1`: the melting point came out at 248 °C.

Regarding `Oc1ccc(F)cc1Cl`, the melting point turned out to be 23 °C.

With `FC(F)(F)C(F)(C(F)(F)F)C(F)(C(F)(F)F)C(F)(F)F`, the melting point was -16.7 °C.

The compound `Nc1ccccc1COc1ccccc1` came in with a melting point of 78 °C.

`CCCCCCCCCCCCCCCCC(CCC)c1ccccc1` (stereo unspecified) yielded a melting point of 31.4 °C.

As to `CC(C)=NN=C(C)C`, the melting point was -12.5 °C.

With `Cc1cc(=O)oc(C)c1C(=O)O`, the melting point was in the range of 154 to 156 °C.

In turn, `COc1ccc(N=C=S)cc1OC` displayed a melting point of 48 °C.

`O=C(O)c1cc(F)c(Cl)c([N+](=O)[O-])c1Cl`: the melting point fell in the range of 193 to 197 °C.

In the case of `O=C(O)c1cc2cc(OCc3ccccc3)ccc2[nH]1`, the melting point amounted to 197 °C.

For `CCN(Cc1c(F)cccc1Cl)c1c([N+](=O)[O-])cc(C(F)(F)F)cc1[N+](=O)[O-]`, the melting point was 102 °C.

Compound `N#CC1CC2CCC1C2` (stereo unspecified) registered a melting point of 44 °C.

In turn, `N#Cc1ccc(-n2cccc2)cc1` returned a melting point of 103 to 105 °C.

In the case of `C1CCCC2OC2CC1` (stereo unspecified), the melting point fell in the range of 53 to 56 °C.

Compound `COc1cccc2cc(C(=O)C3CC(C)(c4ccccc4)C3)oc12` (stereo unspecified) registered a melting point of 104 to 105 °C.

`Cc1ccc2[nH]c(S)nc2c1` yielded a melting point of 290 to 293 °C.

In the case of `CCCCC(O)C(O)CO` (stereo unspecified), the melting point is 92 to 97 °C.

For the compound `NNC(=O)C(O)c1ccccc1` (stereo unspecified), the melting point came to 130 °C.

`CCCCCOC=O` showed a melting point of -73.5 °C.

In the case of `N#CC1(C#N)C2O[C@H](c3ccccc3)[C@@H](C3=C2CCCC3)C1(C#N)C#N`, the melting point was determined as 168 °C.

In the case of `CC1=Cc2ccccc2C1`, the melting point came out at 80 °C.

As for `Cc1ccc2c(c1)C(=O)c1ccc(C)cc1C2=O`, the melting point was determined as 240 °C.

`CCCOCC(C)O` (stereo unspecified): the melting point is -80 °C.

`O=C(Nc1ncc([N+](=O)[O-])s1)c1cccs1` gave a melting point of 256 °C.

As to `COC(=O)c1noc(C)c1C(C)=NO`, the melting point lay within 121 to 124 °C.

The compound `COc1cc(F)ccc1C=O` yielded a melting point of 61 °C.

Turning to `C=C1C(=O)OC2C1CCC(C)C1(O)C=CC(=O)C21C` (stereo unspecified), the melting point was found to be 164 °C.

With `CC(=O)c1ccc(F)cc1O`, the melting point is 31.5 °C.

Compound `Cc1ccc(N=C(Nc2ccc(C)cc2)c2cc(C(C)(C)C)c(O)c(C(C)(C)C)c2)cc1` gave a melting point of 207 °C.

In turn, `O=C(OCc1ccccc1Br)ON1C(=O)CCC1=O` yielded a melting point of 107 °C.

Turning to `Cc1cnc(Cl)c(N)c1`, the melting point is 82 to 87 °C.

In turn, `Cn1nc(-c2ccc(Cl)cc2)cc1N` displayed a melting point of 150 to 152 °C.

The compound `CCCOC(=O)c1ccccc1O` registered a melting point of 97 °C.

`O=C(CCCN1CC=C(n2c(=O)[nH]c3ccccc32)CC1)c1ccc(F)cc1` yielded a melting point of 146 °C.

With `Cn1nc(CCNC(=O)c2cc([N+](=O)[O-])cc([N+](=O)[O-])c2)c2c(N)ncnc21`, the melting point came to 281 °C.

In turn, `NC(=S)NC1CCCCC1` registered a melting point of 162 °C.

`CC1(O)CCC2C3CCC4=CC(=O)CCC4(C)C3(F)C(O)CC21C` (stereo unspecified) returned a melting point of 270 °C.

Consider `CC(C)(CO)C(=O)O`, for which the melting point came to 124 °C.

In turn, `Cc1ccc(N)cc1I` gave a melting point of 36 °C.

`COc1cc(N=C=S)cc(OC)c1` showed a melting point of 50.5 °C.

`COC(=O)c1ccc(OC)c(C#N)c1`: the melting point lay in the range of 124 to 125 °C.

On to `Clc1cc2oc3c(Cl)c(Cl)ccc3c2c(Cl)c1Cl`, for which the melting point amounted to 206 °C.

`CCCCCC(=O)OCCCC` returned a melting point of -64.3 °C.

`COc1ccc(/C=N/c2nc(C(F)(F)F)n[nH]2)cc1` displayed a melting point of 171 °C.

`CN(CCO)c1cc(C(F)(F)F)nc2ccccc12` returned a melting point of 90.5 to 92.5 °C.

`CCCCCCCCCCCCCCCCN` displayed a melting point of 46.8 °C.

`C=C(C)C(=O)OCC(C)C` displayed a melting point of -37 °C.

`CC(=O)OCC1OC=CC(OC(C)=O)C1OC(C)=O` (stereo unspecified) returned a melting point of 54 °C.

On to `CCOC(=O)/C(=N\Nc1ccc(C)cc1C)C(=O)C(F)(F)F`, for which the melting point was determined as 139 °C.

`CC(=O)Oc1ccc2ccccc2c1` yielded a melting point of 69 °C.

`CCOC(=O)CNc1cc(NCC(=O)OCC)c([N+](=O)[O-])cc1[N+](=O)[O-]` displayed a melting point of 198 °C.

The compound `N#CC(C#N)=Cc1ccc(Cl)cc1` displayed a melting point of 91 °C.

`C[N+](C)(C)CCOP(=O)([O-])OCC(O)CO` (stereo unspecified) came in with a melting point of 142 °C.

With `Cc1cncc(Oc2ccc(Br)cc2)n1`, the melting point is 58.5 to 60 °C.

In turn, `CCOC(=O)c1ccc(N=C=S)cc1` displayed a melting point of 57 °C.

For the compound `ICc1ccccc1`, the melting point worked out at 24.5 °C.

In turn, `CCOC(=O)c1cn[nH]c1NC(=O)Nc1ccccc1` came in with a melting point of 242 to 245 °C.

As for `Nc1cccc2c1Cc1ccccc1-2`, the melting point turned out to be 126 °C.

`CC(C)CCCCCCCO` came in with a melting point of 5 °C.

Take `CC(=O)OC(CCC(=O)c1ccccc1)c1ccccc1` (stereo unspecified): the melting point was 73 °C.

`O=C(O)C(CBr)CBr` displayed a melting point of 100 °C.

Regarding `O=C1NC(=S)NC(=O)C1=NNc1cccc([N+](=O)[O-])c1`, the melting point was determined as 330 °C.

Take `CC(C)C(N)=NO`: the melting point was 60 to 61 °C.

`CCOC(=O)c1c(-c2ccc(C)c(C)c2)csc1N` came in with a melting point of 82 °C.

`O=C(O)C(O)(c1ccccc1Cl)c1ccccc1Cl` registered a melting point of 162 °C.

As to `COC(=O)C1C2CC3c4[nH]c5ccccc5c4CCN3CC2CC(OC(=O)c2cc(OC)c(OC)c(OC)c2)C1OC` (stereo unspecified), the melting point stood at 230 °C.

As for `NCc1ccc2nccn2c1`, the melting point lay in the range of 97 to 99 °C.

In the case of `N=c1sc(C(=O)c2cccs2)nn1-c1cccc(C(F)(F)F)c1`, the melting point came to 185 °C.

`O=C1c2ccccc2-c2ccc([N+](=O)[O-])cc21` gave a melting point of 222 to 223 °C.

The compound `COc1ccccc1/N=N/c1c(N)nn2c(-c3ccccc3)cc(=O)[nH]c12` gave a melting point of 303 to 305 °C.

For `CC(=O)c1c(C)c[nH]c1C`, the melting point was found to be 138 °C.

Compound `Oc1ccccc1N1CCCC1` had a melting point of 111 °C.

In turn, `NS(=O)(=O)c1cc(-c2nnn[nH]2)c(NCc2cccs2)cc1Cl` gave a melting point of 220 °C.

In turn, `Cc1cc(C)nc(Cl)n1` had a melting point of 34 to 36 °C.

In the case of `COC(=O)C1(S(=O)(=O)c2ccc(C)cc2)CC1`, the melting point was determined as 97.2 °C.

Turning to `CC(C)=CC1C(C(=O)OCc2coc(Cc3ccccc3)c2)C1(C)C` (stereo unspecified), the melting point amounted to 56.5 °C.

`OCc1ccc(-c2ccccc2)cc1` returned a melting point of 101 to 105 °C.

As to `Cc1nnc(SCc2ccccc2)n1N=Cc1ccc(Cl)cc1`, the melting point was in the range of 120 to 121 °C.

`CC(OCc1ccccc1)C(NC(=O)OC(C)(C)C)C(=O)O` (stereo unspecified): the melting point was determined as 116 °C.

`Cc1c(C2(c3cc(Br)c(O)c(Br)c3C)OS(=O)(=O)c3ccccc32)cc(Br)c(O)c1Br` registered a melting point of 222 °C.

Compound `O=C(c1ccccc1)c1ccccc1Cl` showed a melting point of 46 °C.

`N#CCc1ccc(OS(=O)(=O)c2ccc(Cl)cc2)cc1`: the melting point fell in the range of 95 to 97 °C.

For `O=C(NO)c1ccc(Cl)cc1O`, the melting point was 195 to 199 °C.

`CSCCC(NS(=O)(=O)c1ccc(C)cc1)C(=O)O` (racemic): the melting point lay in the range of 105 to 108 °C.
